# Laboratory results published in patent US20110245293A1, “PHARMACEUTICAL PRODUCT COMPRISING A MUSCARINIC RECEPTOR ANTAGONIST AND A BETA-2-ADRENOCEPTOR AGONIST” (priority 2008, published 2011).
# Structures can show the parent of a compound that is named as a salt.
# How the values were obtained:
# [1] = Gravimetric Vapour Sorption (GVS) of crystalline material; type: physicochemical; details: at 80% RH
# Experimental: Gravimetric Vapour Sorption (GVS) profiles were measured using a Surface Measurements Systems Dynamic Vapour Sorption DVS-1 or a DVS Advantage instrument. The solid sample ca. 1-5 mg was placed into a glass vessel and the weight of the sample was recorded during a dual cycle step method (40 to 90 to 0 to 90 to 0% relative humidity (RH), in steps of 10% RH).
# Adrenergic β2 = target: T1, Adrenergic β2 (Homo sapiens, UniProt P07550); assay: Adrenergic β2 mediated cAMP production in H292 cells (AlphaScreen); type: cell-based; details: Intrinsic Activity as a fraction relative to the maximum activity of formoterol
# T1 construct: endogenous in cells; host or cells: H292 cells
# T1 sequence (P07550 whole entry): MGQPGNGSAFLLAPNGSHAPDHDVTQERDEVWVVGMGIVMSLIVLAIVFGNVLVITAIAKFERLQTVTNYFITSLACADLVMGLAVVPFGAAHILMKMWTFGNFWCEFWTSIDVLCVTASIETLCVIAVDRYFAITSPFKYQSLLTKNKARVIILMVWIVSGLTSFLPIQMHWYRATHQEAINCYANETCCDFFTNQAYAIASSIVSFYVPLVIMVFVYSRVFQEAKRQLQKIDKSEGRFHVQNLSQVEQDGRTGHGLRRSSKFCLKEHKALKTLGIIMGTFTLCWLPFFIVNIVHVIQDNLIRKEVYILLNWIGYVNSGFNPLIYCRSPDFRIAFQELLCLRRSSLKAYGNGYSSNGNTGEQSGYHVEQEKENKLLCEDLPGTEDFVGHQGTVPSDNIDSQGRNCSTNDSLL
# Experimental: Adrenergic β2 Mediated cAMP Production
# H292 cells were grown in 225 cm2 flasks incubator at 37° C., 5% CO2 in RPMI medium containing, 10% (v/v) FBS (foetal bovine serum) and 2 mM L-glutamine.
# Adherent H292 cells were removed from tissue culture flasks by treatment with Accutase™ cell detachment solution for 15 minutes. Flasks were incubated for 15 minutes in a humidified incubator at 37° C., 5% CO2. Detached cells were re-suspended in RPMI media (containing 10% (v/v) FBS and 2 mM L-glutamine) at 0.05×10^6 cells per mL. 5000 cells in 100 μL were added to each well of a tissue-culture-treated 96-well plate and the cells incubated overnight in a humidified incubator at 37° C., 5% CO2. The culture media was removed and cells were washed twice with 100 μL assay buffer and replaced with 50 μL assay buffer (HBSS solution containing 10 mM HEPES pH7.4 and 5 mM glucose). Cells were rested at room temperature for 20 minutes after which time 25 μL of rolipram (1.2 mM made up in assay buffer containing 2.4% (v/v) dimethylsulphoxide) was added. Cells were incubated with rolipram for 10 minutes after which time Compound A was added and the cells were incubated for 60 minutes at room temperature. The final rolipram concentration in the assay was 300 μM and final vehicle concentration was 1.6% (v/v) dimethylsulphoxide. The reaction was stopped by removing supernatants, washing once with 100 μL assay buffer and replacing with 50 μL lysis buffer. The cell monolayer was frozen at −80° C. for 30 minutes (or overnight).
# The concentration of cAMP (cyclic adenosine monophosphate) in the cell lysate was determined using AlphaScreen™ methodology. […] The AlphaScreen™ signal was measured using an EnVision spectrophotometer (Perkin-Elmer Inc.) with the recommended manufacturer's settings. cAMP concentrations were determined by reference to a calibration curve determined in the same experiment using standard cAMP concentrations. […] Intrinsic Activity was expressed as a fraction relative to the maximum activity determined for formoterol in each experiment.
# [2] = Dynamic vapour sorption (DVS) analysis of crystalline material; type: physicochemical; details: at 80% RH, 25° C.
# Experimental: Dynamic vapour sorption (DVS) analysis was performed on a Surface Measurement systems (SMS) DVS-Intrinsic moisture sorption analyser. The instrument was controlled by SMS Analysis Suite software (DVS-Intrinsic Control v1.0.0.30). Analysis of the data was performed using Microsoft Excel 2007 together DVS Standard Analysis Suite (v6.0.0.7). Sample temperature was maintained at 25° C. and the sample humidity was obtained by mixing streams of wet and dry nitrogen at a total flow rate of 200 mlmin^−1. The relative humidity was measured using a calibrated Rotronic probe (dynamic range 1-100% Relative Humidity (RH)) located close to the sample. The weight change of the sample as a function of % RH was constantly monitored by the microbalance (accuracy±0.005 mg). Typically a PXRD would be run prior to analysis. 20 mg of sample was then placed in a tared stainless steel mesh basket under ambient conditions. The sample was loaded and unloaded at 40% RH and 25° C. (typical room conditions) and the sample subjected to a graduated DVS regime over 2 cycles using the parameters shown in Table 1.
Structure (SMILES),GVS mass increase [1],β2 Int Act (Adrenergic β2),other results
"Cc1ccc(O[C@H]2C[N+]3(Cc4cc(C(O)(c5ccccc5)c5ccccc5)no4)CCC2CC3)cc1F.[Br-] [Example 7, (R)-3-(3-Fluoro-4-methyl-phenoxy)-1-[3-(hydroxy-diphenyl-methyl)-isoxazol-5-ylmethyl]-1-azonia-bicyclo[2.2.2]octane bromide]",approximately 0.1%,–,–
"O=c1[nH]c2c(O)ccc([C@@H](O)CNCCSCCCNCCc3ccccc3Cl)c2s1 [BA3, 7-[(1R)-2-({2-[(3-{[2-(2-Chlorophenyl)ethyl]amino}propyl)thio]ethyl}amino)-1-hydroxyethyl]-4-hydroxy-1,3-benzothiazol-2(3H)-one dihydrobromide]",–,0.8,–
"CCN(CC)CCN(CCNCCc1ccc(O)c2[nH]c(=O)sc12)C(=O)CCOCCc1cccc2ccccc12 [BA1, N-[2-(Diethylamino)ethyl]-N-(2-{[2-(4-hydroxy-2-oxo-2,3-dihydro-1,3-benzothiazol-7-yl)ethyl]amino}ethyl)-3-[2-(1-naphthyl)ethoxy]propanamide dihydrobromide]",–,0.8,–
"O[C@](c1ccccc1)(c1cc(C[N+]23CCC(CC2)[C@@H](Oc2cccc(F)c2)C3)on1)C1CCCCC1 [Example 4, (R)-1-[3-((R)-Cyclohexyl-hydroxy-phenyl-methyl)-isoxazol-5-ylmethyl]-3-(3-fluoro-phenoxy)-1-azonia-bicyclo[2.2.2]octane 2-hydroxy-ethanesulfonate]",no mass increase,–,–
"O=S(=O)([O-])c1ccccc1.O[C@](c1ccccc1)(c1cc(C[N+]23CCC(CC2)[C@@H](Oc2ccc(F)cc2)C3)on1)C1CCCCC1 [Example 2, (R)-1-[3-((R)-Cyclohexyl-hydroxy-phenyl-methyl)-isoxazol-5-ylmethyl]-3-(4-fluoro-phenoxy)-1-azonia-bicyclo[2.2.2]octane benzenesulfonate]",–,–,DVS weight increase [2]: 0.2 % (% w/w)
"CCN(CC)CCN(CCNCCc1ccc(O)c2[nH]c(=O)sc12)C(=O)CCOCCc1cccc(Cl)c1 [BA2, N-[2-(Diethylamino)ethyl]-N-(2-{[2-(4-hydroxy-2-oxo-2,3-dihydro-1,3-benzothiazol-7-yl)ethyl]amino}ethyl)-3-[2-(3-chlorophenyl)ethoxy]propanamide dihydrobromide]",–,0.7,–
"O[C@](c1ccccc1)(c1cc(C[N+]23CCC(CC2)[C@@H](Oc2cccc(F)c2)C3)on1)C1CCCCC1.[Cl-] [Example 3, (R)-1-[3-((R)-Cyclohexyl-hydroxy-phenyl-methyl)-isoxazol-5-ylmethyl]-3-(3-fluoro-phenoxy)-1-azonia-bicyclo[2.2.2]octane chloride]",–,–,GVS mass increase 1st cycle ([1]; 1st cycle): approximately 5%; GVS mass increase 2nd cycle ([1]; 2nd cycle): ~6.5%
"O[C@](c1ccccc1)(c1nnc(C[N+]23CCC(CC2)[C@@H](Oc2ccc(F)cc2)C3)o1)C1CCCCC1.[Br-] [Example 5, (R)-1-[5-((R)-Cyclohexyl-hydroxy-phenyl-methyl)-[1,3,4]oxadiazol-2-ylmethyl]-3-(4-fluoro-phenoxy)-1-azonia-bicyclo[2.2.2]octane bromide]",approximately 0.8%,–,–
